# Assays:
# [1] = molecular target: T1, AChE (Electric-eel EC 3.1.1.7) (Electrophorus electricus, UniProt O42275); test: biochemical; assay type: biochemical; details: for Type of inhibition (AChE): Lineweaver-Burk, Dixon plots and replots, 50, 75, 100 μM of compound 1
# T1 construct: purchased Sigma Aldrich
# [2] = molecular target: T2, BChE (horse-serum E.C 3.1.1.8) (Equus caballus, UniProt P81908); test: Cholinesterase inhibition assay (Ellman spectrophotometric method), BChE; assay type: biochemical; details: for Type of inhibition (BChE): Lineweaver-Burk, Dixon plots and replots, 50, 75, 100 μM of compound 1
# T2 construct: purchased Sigma Aldrich; host or cells: horse serum
# T2 sequence (P81908 whole entry): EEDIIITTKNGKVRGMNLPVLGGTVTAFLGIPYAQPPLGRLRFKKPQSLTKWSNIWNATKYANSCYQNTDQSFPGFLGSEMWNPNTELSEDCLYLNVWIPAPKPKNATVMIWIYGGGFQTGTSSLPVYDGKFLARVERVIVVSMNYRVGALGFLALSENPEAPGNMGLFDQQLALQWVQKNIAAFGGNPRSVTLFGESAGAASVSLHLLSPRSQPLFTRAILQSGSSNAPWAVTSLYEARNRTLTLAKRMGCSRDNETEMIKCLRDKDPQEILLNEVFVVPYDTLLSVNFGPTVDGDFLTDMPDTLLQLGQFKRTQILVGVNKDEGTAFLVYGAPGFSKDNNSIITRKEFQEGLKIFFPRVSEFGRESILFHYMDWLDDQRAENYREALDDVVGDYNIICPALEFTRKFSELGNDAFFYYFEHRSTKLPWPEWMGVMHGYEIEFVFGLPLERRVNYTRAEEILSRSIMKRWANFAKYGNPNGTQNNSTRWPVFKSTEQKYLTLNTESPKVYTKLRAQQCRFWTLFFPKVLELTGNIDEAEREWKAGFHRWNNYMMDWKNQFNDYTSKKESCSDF
# Procedure: Enzyme (AChE/BChE) inhibition activities were measured by spectrophotometric method as described in literature (Ellman et al. [1961]). Reported protocol and assay conditions were followed throughout (Rocha et al. [1993]). AChI and AChCl substrates were used to assay AChE and BChE, respectively. DTNB was used as reagent for the measurement of cholinesterase activity. Solution containing DTNB (0.2 mM) in 62 mM sodium phosphate buffer (pH 8.0, 880 μL), test compound solution (40 μL) and AChE or BChE solution (40 μL) were mixed, incubated for 15 min (25 °C). AChE or BChE (40 μL), were added to initiate the respective solution. The hydrolysis of AChE and BChE were noted by naked eye due to formation of yellow colour 5-thio-2-nitrobenzoate anion at a wavelength of 412 nm (15 min). Reactions were performed in triplicate in a BMS spectrophotometer (USA) and the results presented are average values.
# [3] = listed as isotalatazidine hydrate
# [4] = listed as isotalatizidine hydrate
# T1 sequence (O42275 24-633): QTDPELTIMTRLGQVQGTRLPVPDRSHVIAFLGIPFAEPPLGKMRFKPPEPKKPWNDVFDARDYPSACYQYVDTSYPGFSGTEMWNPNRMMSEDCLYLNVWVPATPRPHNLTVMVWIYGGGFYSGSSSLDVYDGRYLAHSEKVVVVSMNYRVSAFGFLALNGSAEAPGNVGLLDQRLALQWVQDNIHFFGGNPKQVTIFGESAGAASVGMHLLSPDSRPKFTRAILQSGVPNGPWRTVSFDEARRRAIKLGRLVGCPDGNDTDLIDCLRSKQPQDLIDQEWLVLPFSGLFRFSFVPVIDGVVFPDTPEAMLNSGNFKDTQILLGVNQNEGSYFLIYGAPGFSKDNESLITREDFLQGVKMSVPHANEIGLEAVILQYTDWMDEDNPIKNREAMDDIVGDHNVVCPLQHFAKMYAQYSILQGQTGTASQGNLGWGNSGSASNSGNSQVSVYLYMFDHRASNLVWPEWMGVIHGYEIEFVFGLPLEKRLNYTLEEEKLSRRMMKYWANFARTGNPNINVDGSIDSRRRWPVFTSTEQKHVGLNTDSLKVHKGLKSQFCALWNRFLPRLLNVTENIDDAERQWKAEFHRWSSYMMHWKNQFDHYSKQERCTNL
compound,measurement,setting,value
"CCN1CC2(COC)CCC(O)C34C5CC6C(OC)CC(O)(C(CC23)C14)C5C6O (centres unmarked) [Isotalatizidine hydrate, isotalatizidine hydrate]",Type of inhibition (AChE),[1],Competitive
same,Type of inhibition (AChE),[1]; [3],competitive type inhibition
same,Type of inhibition (AChE),[1]; [4],competitive inhibitor
same,IC50,"[1]; standard error of mean of five assays, DTNB, pH 8.0, 25 °C, read-out: AChE ± SEM (IC50)",12.1 ± 0.43 µM
same,Type of inhibition (BChE),[2],Competitive
same,Type of inhibition (BChE),[2]; [3],competitive type inhibition
same,Type of inhibition (BChE),[2]; [4],competitive inhibitor
same,IC50,"[2]; standard error of mean of five assays, DTNB, pH 8.0, 25 °C, read-out: BChE ± SEM (IC50)",21.4 ± 0.23 µM

# — publication PMC6130761, “Isolation, crystal structure determination and cholinesterase inhibitory potential of isotalatizidine hydrate from Delphinium denudatum” (Pharmaceutical Biology, 2016)
